Measurements published in ChEMBL document CHEMBL1201862, “PubChem BioAssay data set” (2004).
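Five compound concentrations were applied to cells in 96-well plates for 48 hours; endpoints were derived by simple linear interpolation of the resulting dose-response curve. Here, GI50 denotes the concentration required for 50% inhibition of growth.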 Active and inactive are the calls of the source. Rule as the data show it: active = GI50 up to about 1.1 µM and inactive = higher.

How the values were obtained:
Experiment in all cases: inhibition of tumour cell growth, NCI panel, 48 h
[1] = tested on: 786-0
[2] = tested on: A549
[3] = tested on: ACHN
[4] = tested on: CAKI-1
[5] = tested on: CCRF-CEM
[6] = tested on: COLO 205
[7] = tested on: DLD-1
[8] = tested on: DMS-114
[9] = tested on: DMS-273
[10] = tested on: EKVX
[11] = tested on: HCC 2998
[12] = tested on: HCT-116
[13] = tested on: HCT-15
[14] = tested on: HL-60
[15] = tested on: HOP-18
[16] = tested on: HOP-62
[17] = tested on: HT-29
[18] = tested on: IGROV-1
[19] = tested on: K562
[20] = tested on: KM-20L2
[21] = tested on: KM12
[22] = tested on: LOX IMVI
[23] = tested on: LXFL 529
[24] = tested on: M14
[25] = tested on: M19-MEL
[26] = tested on: MOLT-4
[27] = tested on: Malme-3M
[28] = tested on: NCI-H226
[29] = tested on: NCI-H23
[30] = tested on: NCI-H460
[31] = tested on: NCI-H522
[32] = tested on: OVCAR-3
[33] = tested on: OVCAR-4
[34] = tested on: OVCAR-5
[35] = tested on: OVCAR-8
[36] = tested on: RPMI-8226
[37] = tested on: RXF 393
[38] = tested on: SF-268
[39] = tested on: SF-295
[40] = tested on: SK-MEL-28
[41] = tested on: SK-MEL-2
[42] = tested on: SK-MEL-5
[43] = tested on: SK-OV-3
[44] = tested on: SN12C
[45] = tested on: SNB-19
[46] = tested on: SNB-75
[47] = tested on: SNB-78
[48] = tested on: SR
[49] = tested on: SW-620
[50] = tested on: TK-10
[51] = tested on: U-251
[52] = tested on: UACC-257
[53] = tested on: UACC-62
[54] = tested on: UO-31
[55] = tested on: XF498

SMILES: O=C(Cc1ccccc1)NN1C(=O)C(Cl)C1c1ccc([N+](=O)[O-])cc1 (stereo not given)
- GI50 [1]: > 100 µM (inactive)
- GI50 [2]: > 100 µM (inactive)
- GI50 [3]: > 100 µM (inactive)
- GI50 [4]: > 100 µM (inactive)
- GI50 [5]: > 10 µM (inactive)
- GI50 [6]: > 100 µM (inactive)
- GI50 [7]: > 100 µM (inactive)
- GI50 [8]: 28.6 µM (inactive)
- GI50 [9]: > 100 µM (inactive)
- GI50 [10]: > 100 µM (inactive)
- GI50 [11]: > 100 µM (inactive)
- GI50 [12]: > 100 µM (inactive)
- GI50 [13]: 45.5 µM
- GI50 [14]: 70.5 µM (inactive)
- GI50 [15]: > 100 µM (inactive)
- GI50 [16]: > 100 µM (inactive)
- GI50 [17]: > 100 µM (inactive)
- GI50 [18]: > 100 µM (inactive)
- GI50 [19]: 65.6 µM (inactive)
- GI50 [20]: > 100 µM (inactive)
- GI50 [21]: > 100 µM (inactive)
- GI50 [22]: 87.5 µM (inactive)
- GI50 [23]: 95.9 µM (inactive)
- GI50 [24]: > 100 µM (inactive)
- GI50 [25]: > 100 µM (inactive)
- GI50 [26]: 53.2 µM (inactive)
- GI50 [27]: > 100 µM (inactive)
- GI50 [28]: > 100 µM (inactive)
- GI50 [29]: 53.5 µM (inactive)
- GI50 [30]: > 100 µM (inactive)
- GI50 [31]: 25.1 µM (inactive)
- GI50 [32]: > 100 µM (inactive)
- GI50 [33]: 55.6 µM (inactive)
- GI50 [34]: > 100 µM (inactive)
- GI50 [35]: > 100 µM (inactive)
- GI50 [36]: 23.5 µM (inactive)
- GI50 [37]: 84.9 µM (inactive)
- GI50 [38]: > 100 µM (inactive)
- GI50 [39]: > 100 µM (inactive)
- GI50 [40]: > 100 µM (inactive)
- GI50 [41]: > 100 µM (inactive)
- GI50 [42]: 49.1 µM (inactive)
- GI50 [43]: > 100 µM (inactive)
- GI50 [44]: 96.4 µM (inactive)
- GI50 [45]: > 100 µM (inactive)
- GI50 [46]: 93.8 µM (inactive)
- GI50 [47]: 45.9 µM (inactive)
- GI50 [48]: 32.7 µM (inactive)
- GI50 [49]: > 100 µM (inactive)
- GI50 [50]: > 100 µM (inactive)
- GI50 [51]: > 100 µM (inactive)
- GI50 [52]: 76.4 µM (inactive)
- GI50 [53]: > 100 µM (inactive)
- GI50 [54]: > 100 µM (inactive)
- GI50 [55]: > 100 µM (inactive)
